Source: patent US20170298051A1, “ACTIVATOR OF ADIPONECTIN RECEPTOR” (THE UNIVERSITY OF TOKYO, priority 2013, published 2017)

Tests used:
AdipoR1 [1] = molecular target: T1, AdipoR1 (Mus musculus, UniProt Q91VH1); test: Measurement of AMPK phosphorylation ability (Assay 1), differentiated C2C12 cells, Western blotting; format: cell-based; conditions: 10 μM, 10 minutes
T1 construct: C2C12 cells (ATCC; CRL-1772, medium; host or cells: differentiated C2C12
T1 sequence (Q91VH1 1-375): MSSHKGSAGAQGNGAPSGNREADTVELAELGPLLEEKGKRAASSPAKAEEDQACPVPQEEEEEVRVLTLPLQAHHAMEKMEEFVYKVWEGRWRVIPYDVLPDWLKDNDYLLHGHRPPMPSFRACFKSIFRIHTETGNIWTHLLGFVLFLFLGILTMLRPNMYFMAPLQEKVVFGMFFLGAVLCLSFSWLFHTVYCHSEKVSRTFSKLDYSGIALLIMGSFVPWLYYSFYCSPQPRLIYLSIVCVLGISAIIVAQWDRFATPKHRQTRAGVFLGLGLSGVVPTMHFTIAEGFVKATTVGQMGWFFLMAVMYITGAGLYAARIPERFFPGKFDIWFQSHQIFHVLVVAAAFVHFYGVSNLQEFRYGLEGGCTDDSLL
Procedure: The AMPK phosphorylation ability of the respective compounds according to the present invention was measured by using differentiated C2C12 cells or HEK 293T cells.
C2C12 cells (ATCC; CRL-1772, medium; DMEM, 10% FBS) were cultured in a 12- or 24-well plate until they reached 100% confluency (37° C., 5% CO2).
The medium was changed to 2.5% Horse Serum (HS) and differentiation was started. The medium (DMEM, 2.5% HS) was replaced every three days.
After starvation, a test compound listed in Table 12 (concentration: 10 μM) was added thereto, and after 10 minutes, the medium was discarded and the plate was frozen with liquid nitrogen.
To the 12- or 24-well cell plate which had been frozen was added 100 or 150 μL of Cell lysis buffer pH 7.4 (50 mM HEPES (pH 7.4), 2 mM sodium orthovanadate, 10 mM sodium pyrophosphate, 10 mM NaF, 2 mM EDTA, 2 mM EGTA, 0.1% (v/v) NP-40, 0.2 mM PMSF), and the cells were scraped off with a cell scraper, suspended and transferred into a micro centrifugal tube. And then, the cells were ultrasonically crushed (1 second×3 times) with a sonicator. Centrifugation was performed at 4° C. at 15,000 rpm for 15 minutes, and the supernatant was recovered into a new tube.
To 100 μL of the supernatant was added 25 μL of 5× sample buffer (280 mM Tris-HCl (pH 6.9), 40% glycerol, 10% (3-mercaptoethanol, 13% SDS, a small amount of bromophenol blue) and mixed together. The rest of the supernatant was used for protein quantification, and the protein concentrations were uniformed by adding 1× sample buffer depending on the concentration of each sample.
An electrophoresis chamber was filled with 1× SDS buffer (25 mM Tris-HCl, 250 mM glycine, 0.1% SDS), and the sample was applied to a well of polyacrylamide gel. Electrophoresis was performed until the bromophenol blue in the sample reached to the bottom of the gel.
A filter paper was soaked in 1× Transfer buffer sufficiently, above which the PVDF membrane and the gel after electrophoresis were stacked in this order, and thereabove a filter paper which had been soaked in 1× Transfer buffer sufficiently was further stacked, from which an air was removed and the resultant was set in semi-dry type transfer apparatus and transferred (7V, 35 minutes).
An unnecessary portion of the blotted membrane was cutoff, and the rest was immediately soaked in blocking buffer (5% skimmed milk in Rinse buffer), and shaken at room temperature at 40 rpm for 3 hours.
After blocking, the membrane was transferred into Rinse buffer, and washed at room temperature for 10 minutes while shaking. The membrane was soaked in a primary antibody solution (AMPK alpha Antibody (Cell signaling; #2532) 1/1,000 in Rinse buffer, Phospho-AMPK alpha (Thr172) (40H9) antibody (Cell signaling; #2535) 1/1,000 in Rinse buffer), and shaken at 4° C. at 40 rpm overnight.
The membrane was soaked in a secondary antibody solution (goat anti-rabbit IgG-HRP Antibody (Santa Cruz; sc-2030) 1/2,000 in Rinse buffer), and shaken at room temperature at 40 rpm for 1 hour.
After the membrane was washed for 45 minutes in the same way as after the primary antibody reaction, the membrane was soaked in a chemiluminescent reaction solution (ECL Western Blotting Detection Reagents, GE Healthcare) for about 1 minute. An excess of the reaction solution was removed, and then the membranes were arranged on a transparent film and sandwiched with it, with which an X-ray film was exposed in a darkroom (for about several seconds to 60 seconds) to develop the film.
The X-ray film was scanned to take the image, for which the band was measured by using the image analysis software “Image J” to determine the respective amounts of pAMPK and AMPK.

AdipoR1 [2] = test: Measurement of AMPK phosphorylation ability (Assay 2), C2C12 cells with unrelated or AdipoR1 siRNA; format: cell-based, Mouse
Procedure: C2C12 cells (ATCC; CRL-1772, medium; DMEM, 10% Fetal Bovine Serum (FBS)) were cultured in a 12- or 24-well plate until they reached 100% confluency (37° C., 5% CO2). The medium was changed to DMEM, 2.5% Horse Serum (HS) and differentiation was started. The medium (DMEM, 2.5% HS) was replaced two days after the start of differentiation. The medium (DMEM, 2.5% HS) was further replaced two days after that.
On the next day following the replacement of the medium, first, 1 μL of Lipofectamine RNAiMAX and 50 μL of OPTI-MEM were mixed, and then 5 μM siRNA (sense siRNA sequence: […]tt (SEQ ID NO: 1)) and 50 μL of OPTI-MEM were mixed and the resultants were left to stand at room temperature for 5 minutes. And then, the 1 μL Lipofectamine RNAiMAX/50 μL OPTI-MEM and the 5 μM siRNA/50 μL OPTI-MEM were mixed, and the resultant was left to stand at room temperature for 10 minutes, which was added to the cells.
After 5 minutes, the medium (DMEM, 2.5 HS) was replaced, and after starvation on the next day, a test compound listed in Table 12 was added thereto. After 10 minutes, the medium was discarded and the plate was frozen with liquid nitrogen.
The respective amounts of pAMPK and AMPK were determined in the same way as in the above Assay 1.

mice fed a HF diet = test: Effects on lipid metabolism: plasma triglycerides and free fatty acid in mice fed a HF diet; format: in vivo
Procedure: Mice were 6-10 week of age at the time of the experiment. They were housed in cages and maintained on a 12 hr light-dark cycle.
Plasma glucose levels were determined by using a glucose B-test (Wako Pure Chemical Industries). Plasma insulin was measured with an insulin immunoassay (Shibayagi). Plasma NEFAs (Wako Pure Chemical Industries) were assayed by enzymatic methods.

[3] = WT mice fed a HF diet, oral 50 mg/kg, 10 days

## O=C(COc1ccc(C(=O)c2ccccc2)cc1)NC1CCN(Cc2ccccc2)CC1 [Compound 73, 2-(4-benzoyl-phenoxy)-N-(1-benzylpiperidin-4-yl)acetamide]
AdipoR1 [1]
  pAMPK/AMPK (%): 84.33%
AdipoR1 [2]; AdipoR1 siRNA
  pAMPK/AMPK (ratio) siRNA, AdipoR1 siRNA: 2.68 ratio
AdipoR1 [2]; unrelated siRNA
  pAMPK/AMPK (ratio) siRNA, unrelated siRNA: 4.75 ratio
Mice fed a HF diet; Adipor1/r2 double-knockout mice
  reduction of plasma TG and FFA: not observed
Mice fed a HF diet; [3]
  plasma concentration of free fatty acid (FFA): reduced
  plasma concentration of triglycerides (TG): reduced
